Data on 13 molecules can be found in ChEMBL document CHEMBL4041523, “Design, synthesis, and evaluation of asymmetric EF24 analogues as potential anti-cancer agents for lung cancer” (Eur J Med Chem, 2017).

Activity calls are given as the source filed them. The rule behind the calls is not given here.

One assay has as its system NCI-H1650. Kind of assay: Cytotoxicity against human NCI-H1650 cells measured after 72 hrs by MTT assay. The format is functional, cell-based. The conditions noted are these: NCI-H1650, 72 h. For orientation: Tetrazolium dyes change colour on reduction, which living cells bring about.
In assay [1] the test system is Lewis lung carcinoma cell line. Kind of assay: Cytotoxicity against mouse LLC cells measured after 72 hrs by MTT assay. The format is functional, cell-based.
Assay [2] has as its system A549. Kind of assay: Cytotoxicity against human A549 cells measured after 72 hrs by MTT assay. The format is functional, cell-based. As to conditions: for IC50: A549, 72 h.
The test system of assay [3] is A549. The assay can be described thus: Induction of apoptosis in human A549 cells assessed as reduction in Bcl-2 expression measured after 24 hrs by Western blot analysis. The format is functional, cell-based. In general terms: In western blotting, separated proteins are transferred to a membrane and probed.
The test system of assay [4] is A549. The assay can be described thus: Induction of apoptosis in human A549 cells assessed as cell shrinkage measured after 72 hrs by Hoechst 33258 staining based fluorescent microscopic analysis. The format is functional.
In assay [5] the test system is A549. The assay can be described thus: Induction of apoptosis in human A549 cells at 10 uM measured after 48 hrs by Annexin-V-FITC/propidium iodide staining based flow cytometry (reference value: 5.91 %). The format is functional. (Flow cytometry measures light scatter and fluorescence of single cells or particles in a stream.)
Assay [6] relates to A549. The assay can be described thus: Induction of apoptosis in human A549 cells assessed as ROS production at 10 uM in presence of ROS inhibitor NAC measured after 12 hrs by DCFH-DA staining based flow cytometry (reference value: 7.19 %). The format is functional.
In assay [7] the target is Transcription factor p65 (Homo sapiens) (UniProt Q04206). Kind of assay: Inhibition of TNF-alpha stimulated P65 nuclear translocation in human A549 cells at 10 uM pretreated for 2 hrs followed by TNF-alpha induction measured after 20 mins DAPI-staining based assay. The format is cell-based.
Transcription factor p65 (Homo sapiens), sequence (Q04206 whole entry): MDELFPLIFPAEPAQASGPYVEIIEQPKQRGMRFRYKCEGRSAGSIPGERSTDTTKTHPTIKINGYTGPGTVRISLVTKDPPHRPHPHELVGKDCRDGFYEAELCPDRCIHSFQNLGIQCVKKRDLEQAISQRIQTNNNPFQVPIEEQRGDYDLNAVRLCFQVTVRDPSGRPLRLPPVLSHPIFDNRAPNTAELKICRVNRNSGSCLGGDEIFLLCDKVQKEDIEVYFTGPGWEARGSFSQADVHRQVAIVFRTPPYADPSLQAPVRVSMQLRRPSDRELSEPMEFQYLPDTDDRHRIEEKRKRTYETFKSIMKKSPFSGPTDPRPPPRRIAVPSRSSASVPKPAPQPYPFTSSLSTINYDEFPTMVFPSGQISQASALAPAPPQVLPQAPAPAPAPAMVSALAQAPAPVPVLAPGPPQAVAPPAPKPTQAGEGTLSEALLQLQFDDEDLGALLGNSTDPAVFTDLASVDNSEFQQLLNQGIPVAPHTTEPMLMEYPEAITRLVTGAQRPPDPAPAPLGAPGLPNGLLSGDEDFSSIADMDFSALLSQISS
Assay [8] deals with T1, c-Jun N-terminal kinase, JNK (Homo sapiens) (UniProt P45983+P53779+P45984). Kind of assay: Induction of ROS-induced JNK phosphorylation in human A549 cells at 10 uM measured after 24 hrs by Western blot analysis. The format is cell-based.
Assay [9] deals with A549. Kind of assay: Induction of apoptosis in human A549 cells assessed as reduction in Bcl-2 expression at 10 uM measured after 24 hrs Western blot analysis. The format is functional, cell-based.
For assay [10], the system named is A549. Kind of assay: Antiproliferative activity against human A549 cells assessed as reduction in colony formation measured after 7 days by crystal violet staining based assay. The format is functional, cell-based.
Assay [11] deals with A549. Kind of assay: Induction of apoptosis in human A549 cells assessed as increase in Bax expression measured after 24 hrs by Western blot analysis. The format is functional, cell-based.
In assay [12] the test system is A549. Kind of assay: Induction of apoptosis in human A549 cells assessed as formation of apoptotic bodies measured after 72 hrs by Hoechst 33258 staining based fluorescent microscopic analysis. The format is functional, cell-based.
The test system of assay [13] is A549. The assay can be described thus: Induction of apoptosis in human A549 cells assessed as increase in ROS production at 10 uM by DCFH-DA staining based flow cytometry. The format is functional, cell-based. As to conditions: TDE = time-dependent effect.
The target in assay [14] is T1, c-Jun N-terminal kinase, JNK (Homo sapiens). The assay can be described thus: Induction of ROS-induced JNK phosphorylation in human A549 cells at 10 uM in presence of ROS inhibitor NAC measured after 24 hrs Western blot analysis. The format is cell-based.
The test system of assay [15] is A549. Kind of assay: Anti-migratory activity against human A549 cells assessed as reduction in cell migration at 5 uM measured after 24 to 72 hrs by wound healing assay relative to control. The format is functional. Set-up: scale not given: the % may be the effect or the level left.
Assay [16] deals with A549. The assay can be described thus: Induction of apoptosis in human A549 cells assessed as increase in cleaved caspase-3 level at 20 uM measured after 24 hrs by Western blot analysis. The format is functional, cell-based.
Assay [17] relates to A549. Kind of assay: Anti-migratory activity against human A549 cells assessed as reduction in cell migration measured after 24 to 72 hrs by wound healing assay. The format is functional, cell-based.
The test system of assay [18] is A549. The assay can be described thus: Induction of apoptosis in human A549 cells assessed as increase in Bax expression at 10 uM measured after 24 hrs Western blot analysis. The format is functional, cell-based.
In assay [19] the test system is A549. The assay can be described thus: Induction of apoptosis in human A549 cells assessed as ROS production at 10 uM measured after 12 hrs by DCFH-DA staining based flow cytometry (reference value: 7.19 %). The format is functional.
In assay [20] the test system is A549. The assay can be described thus: Induction of apoptosis in human A549 cells measured after 48 hrs by Annexin-V-FITC/propidium iodide staining based flow cytometry. The format is functional, cell-based.
Assay [21] relates to A549. The assay can be described thus: Anti-migratory activity against human A549 cells assessed as reduction in cell migration at 20 uM measured after 24 to 72 hrs by wound healing assay relative to control. On the set-up: scale not given: the % may be the effect or the level left. The format is functional.
For assay [22], the system named is A549. The assay can be described thus: Induction of apoptosis in human A549 cells at 20 uM measured after 48 hrs by Annexin-V-FITC/propidium iodide staining based flow cytometry (reference value: 5.91 %). The format is functional.
Assay [23] deals with T2, NF-kappa-B inhibitor alpha (Homo sapiens) (UniProt P25963).
T2 sequence (whole entry): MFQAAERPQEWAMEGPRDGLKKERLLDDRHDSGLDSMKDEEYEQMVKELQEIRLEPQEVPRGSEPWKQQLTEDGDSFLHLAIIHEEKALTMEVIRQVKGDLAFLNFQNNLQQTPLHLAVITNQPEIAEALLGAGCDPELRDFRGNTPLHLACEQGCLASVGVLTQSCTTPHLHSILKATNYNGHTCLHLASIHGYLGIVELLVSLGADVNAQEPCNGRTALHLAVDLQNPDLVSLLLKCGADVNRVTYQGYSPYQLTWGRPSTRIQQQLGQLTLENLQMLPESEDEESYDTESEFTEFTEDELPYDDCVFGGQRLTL
Kind of assay: Inhibition of TNF-alpha induced IkappaBalpha degradation in human A549 cells measured after 24 hrs by Western blot analysis. The format is cell-based.

The test system of assay [24] is A549. The assay can be described thus: Induction of apoptosis in human A549 cells at 5 uM measured after 48 hrs by Annexin-V-FITC/propidium iodide staining based flow cytometry (reference value: 5.91 %). The format is functional.
The test system of assay [25] is A549. The assay can be described thus: Induction of apoptosis in human A549 cells assessed as reduction in Bcl-2 expression at 10 uM in presence of ROS inhibitor NAC measured after 24 hrs Western blot analysis. The format is functional, cell-based.
The test system of assay [26] is A549. Kind of assay: Induction of apoptosis in human A549 cells assessed as increase in Bax expression at 10 uM in presence of ROS inhibitor NAC measured after 24 hrs Western blot analysis. The format is functional, cell-based.
Assay [27] has as its system A549. Kind of assay: Anti-migratory activity against human A549 cells assessed as reduction in cell migration at 10 uM measured after 24 to 72 hrs by wound healing assay relative to control. The format is functional. Set-up: scale not given: the % may be the effect or the level left.
The subject of assay [28] is A549. Kind of assay: Induction of apoptosis in human A549 cells assessed as chromatin condensation measured after 72 hrs by Hoechst 33258 staining based fluorescent microscopic analysis. The format is functional, cell-based.

On to `COc1cc(/C=C/C(=O)CC(=O)/C=C/c2ccc(O)c(OC)c2)ccc1O` [CURCUMIN], for which the IC50 in the assay with NCI-H1650 worked out at 20.7 µM; in assay [1], 24.7 µM; with A549 [2] it was 27.8 µM.

Consider `O=C1/C(=C/c2ccccc2F)COC/C1=C\c1ccc(Cl)cc1Cl`, for which the results for the IC50 (with NCI-H1650; in [1]; in the assay with A549 [2]) were 8.6 µM, 29.4 µM and 7.9 µM, respectively.

On to `COc1ccc(OC)c(/C=C2\COC/C(=C\c3ccccc3F)C2=O)c1`, for which the IC50 was 6.8 µM with NCI-H1650, 15.1 µM in assay [1] and 8.7 µM in the assay with A549 [2].

Consider `O=C1/C(=C/c2cccc(O)c2)COC/C1=C\c1ccccc1F`, for which the results for the IC50 (in the assay on NCI-H1650; in assay [1]; in the assay on A549 [2]) were 5.7 µM, 13.8 µM and 7.4 µM, respectively.

Turning to `COc1cc(/C=C2\COC/C(=C\c3ccccc3F)C2=O)ccc1O`, the IC50 in the assay on NCI-H1650 is 18.5 µM; in assay [1], 13.1 µM; in the assay with A549 [2], 21.4 µM.

Regarding `COc1cc(/C=C2\COC/C(=C\c3ccccc3F)C2=O)cc(OC)c1OC`, the IC50 with NCI-H1650 was found to be 6.8 µM; in [1], 6.1 µM; in the assay with A549 [2] it was 6.3 µM. The Activity result was “Dose-dependent effect” in the assay with A549 [3]; “Dose-dependent effect” with A549 [4]; 9.26% in the assay on A549 [5]; 5.19% in the assay on A549 [6]; “Dose-dependent effect” with A549 [10]; “Dose-dependent effect” in the assay with A549 [11]. In addition, the Activity entry is “Dose-dependent effect” in the assay with A549 [2]; “Dose-dependent effect” in the assay with A549 [12]; “Tde” in the assay with A549 [13]; 82.2% in the assay with A549 [15]; “Dose-dependent effect” in the assay with A549 [17]; 9.81% in the assay on A549 [19]. In addition, the Activity result is “Dose-dependent effect” with A549 [20]; 37.9% in the assay with A549 [21]; 20.4% in the assay on A549 [22]; 6.55% with A549 [24]; 68.7% in the assay on A549 [27]; “Dose-dependent effect” in the assay with A549 [28]. In addition, the inhibition result in assay [7] was “Active”. Further, the outcome (in assay [8]; with A549 [9]; in the assay with A549 [16]; with A549 [18]) was Active. The result (in [14]; in the assay on A549 [25]; in the assay on A549 [26]) was inactive. In assay [23], the inhibition result was “Dose-dependent effect”.

`O=C1/C(=C/c2ccccc2)COC/C1=C\c1ccccc1F`: the IC50 with NCI-H1650 was 9.6 µM; in assay [1], 16 µM; in the assay with A549 [2], 17.6 µM.

For `O=C1/C(=C/c2ccccc2F)COC/C1=C\c1ccccc1Br`, the 50% inhibitory concentration (IC50) in the assay on NCI-H1650 came out at 6.5 µM; in assay [1], 13.3 µM; in the assay on A549 [2], 6.5 µM.

As for `Cc1ccc2nc(NCCN)c3ncc(C)n3c2c1` [BMS-345541], the 50% inhibitory concentration (IC50) in the assay on NCI-H1650 amounted to 19.9 µM; in assay [1] it was 4.8 µM; in the assay on A549 [2], 5.6 µM. The same molecule showed an Activity in the assay on A549 [22] of 16.57%.

For the molecule `COc1ccc(/C=C2\COC/C(=C\c3ccccc3F)C2=O)cc1O`, the IC50 with NCI-H1650 was 7.5 µM; in [1], 9.6 µM; with A549 [2] it was 13.8 µM.

Regarding `O=C1/C(=C/c2ccccc2F)CNC/C1=C\c1ccccc1F`, the IC50 was determined as 14.6 µM with NCI-H1650, 8.4 µM in assay [1] and 7.1 µM with A549 [2].

Take `O=C1/C(=C/c2ccccc2F)COC/C1=C\c1ccccc1C(=O)O`: the IC50 with NCI-H1650 was found to be 15.2 µM; in assay [1] it was 17.2 µM; with A549 [2], 27.9 µM.

Turning to `COc1ccccc1/C=C1\COC/C(=C\c2ccccc2F)C1=O`, the 50% inhibitory concentration (IC50) lay in the range of 6.5 to 17.6 µM with NCI-H1650, 15.4 to 17.7 µM in assay [1] and 5.9 to 11.7 µM in the assay on A549 [2].

By IC50 is commonly meant the concentration that gives 50% inhibition.
